Measured values: BindingDB's records for patent US11306098 (Venenum Biodesign, 2022)

Legend:
[1] = biological target: T1, Three-prime repair exonuclease 1 (Homo sapiens, UniProt Q9NSU2); assay: Exonuclease Assay
T1 sequence (Q9NSU2 whole entry): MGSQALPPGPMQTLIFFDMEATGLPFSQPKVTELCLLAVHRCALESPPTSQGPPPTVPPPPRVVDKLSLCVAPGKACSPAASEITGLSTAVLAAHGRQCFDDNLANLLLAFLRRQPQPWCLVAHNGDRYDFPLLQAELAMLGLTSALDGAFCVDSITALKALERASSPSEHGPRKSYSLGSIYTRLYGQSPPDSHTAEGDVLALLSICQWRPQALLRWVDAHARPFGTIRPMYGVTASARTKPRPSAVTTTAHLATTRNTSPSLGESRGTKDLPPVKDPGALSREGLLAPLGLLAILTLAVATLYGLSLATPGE
Description: To evaluate the effect of compounds on TREX1 activity, test compounds were serially diluted (11-point, 3-fold) from 10 mM stock solutions and delivered to 384-well low-volume assay plates in 80 nL DMSO using an acoustic dispenser. Next, 4 μL of human TREX1 (0.5 nM), or murine TREX1 (1 nM), diluted in assay buffer (20 mM Tris pH 7.5, 5 mM MgCl2, 100 μg/mL BSA, 0.002% Triton X-100, 2 mM DTT), was added to the assay plate. After incubating for 30 minutes, 4 μL of labeled DNA oligonucleotide (500 nM) in assay buffer was added to initiate TREX1 exonuclease activity. The reaction was allowed to proceed for 45 minutes at room temperature prior to the addition of 4 μL of 150 mM EDTA to halt TREX1 activity. Assay plates were equilibrated for an additional 30 minutes and read on an EnVision Plate Reader (Perkin Elmer) to measure fluorescence emission at 535 nm following excitation at 485 nm. Fluorescence was plotted as a function of log molar compound concentration and fit to four-parameter dose-response equation to determine compound IC50.

[2] = biological target: T2, Three-prime repair exonuclease 1 (Mus musculus, UniProt Q91XB0)
T2 sequence (Q91XB0 whole entry): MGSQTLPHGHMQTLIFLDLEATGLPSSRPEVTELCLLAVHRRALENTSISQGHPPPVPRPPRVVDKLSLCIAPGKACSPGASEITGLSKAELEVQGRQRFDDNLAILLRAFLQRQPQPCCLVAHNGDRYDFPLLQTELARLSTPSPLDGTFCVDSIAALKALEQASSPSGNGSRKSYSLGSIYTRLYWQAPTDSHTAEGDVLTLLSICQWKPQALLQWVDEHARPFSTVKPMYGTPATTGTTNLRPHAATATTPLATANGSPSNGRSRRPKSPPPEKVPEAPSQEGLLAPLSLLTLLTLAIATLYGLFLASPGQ

Row | SMILES | IC50 [1] [nM] | IC50 [2] [nM]
1 | CC(C)C[C@H](C(=O)NCc1ccc(Cl)c(Cl)c1)N1CCC(CCc2ccccc2)N2C[C@H](N)C[C@H]2C1=O (some centres undefined) [US11306098, Example 1] | < 1000 | < 1000
2 | N[C@@H]1C[C@H]2C(=O)N([C@H](CO)C(=O)NCc3ccc(Cl)c(Cl)c3)CCC(CCc3ccccc3)N2C1 (some centres undefined) [US11306098, Example 3] | < 1000 | < 1000
